Source: US20200002354A1, “HEXAHYDROPYRAZINOBENZ- OR -PYRIDO-OXAZEPINES CARRYING AN OXYGEN-CONTAINING SUBSTITUENT AND USE THEREOF IN THE TREATMENT OF 5-HT2C-DEPENDENT DISORDERS” (AbbVie Deutschland GmbH & Co. KG, priority 2015, published 2020)

How the values were obtained:
[1] = biological target: T1, human 5-HT2B receptor (Homo sapiens, UniProt P41595); assay: Human 5-HT2B functional assay (calcium mobilisation in CHO-FlpIn cells, FLIPR); type: cell-based; conditions: based on agonism: EC50 5-HT2B/EC50 5-HT2C
T1 construct: expressed in transfected cells; host or cells: CHO-FlpIn
Procedure, shortened: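 CHO-FlpIn cells stably expressing human 5-HT2B, serum-starved 4 h and Ca5 dye-loaded, received compound (10^−10 to 10^−5 M) for agonism, then 10^−8 M serotonin after 8 min for antagonism; peak calcium read by FLIPR. Efficacy as % serotonin maximum; EC50/IC50 from four-parameter fits, Kb via Cheng–Prusoff.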

[2] = biological target: T2, 5-HT2C receptor (Homo sapiens, UniProt P28335); assay: Human 5-HT2C functional assay (beta-arrestin2 recruitment, U2OS_HTR2C_β-Arrestin cells); type: cell-based
T2 construct: host or cells: U2OS
Procedure, shortened: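 U2OS cells expressing human 5-HT2C with β-arrestin2 enzyme-fragment complementation; switched to 1% serum medium 24 h after plating, compounds added next day for 1.5 h. β-Galactosidase activity read by chemiluminescence; response expressed as percent of 10 μM 5-HT or maximal 5-HT effect (relative efficacy).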

[3] = biological target: T3, human 5-HT2A receptor (Homo sapiens, UniProt P28223); assay: Human 5-HT2A functional assay (calcium mobilisation in CHO-K1 cells, FLIPR); type: cell-based; conditions: based on agonism: EC50 5-HT2A/EC50 5-HT2C
T3 construct: expressed in transfected cells; host or cells: CHO-K1
Procedure, shortened: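 CHO-K1 cells stably expressing human 5-HT2A, serum-starved overnight and loaded with calcium dye plus 0.07% probenecid, were given compound (10^−10 to 10^−5 M) for agonism, then serotonin at 3×10^−8 M after 8 min for antagonism. FLIPR calcium responses were normalised to serotonin maximum, and EC50/IC50 came from four-parameter fits, with Kb via Cheng–Prusoff.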

[4] = Metabolic stability in human liver microsomes, unbound intrinsic clearance; type: in vitro ADME; conditions: liver microsomes, pH 7.4; unbound intrinsic clearance (human); Clint unbound = Cl int/fu mic; read-out: Cl int, mic unb. (h)
Procedure, shortened: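 Compound at 0.5 μM incubated with human liver microsomes (0.25 mg/mL) in 0.05 M potassium phosphate pH 7.4 at 37° C, started with 1.0 mM NADPH; sampled 0–30 min, parent quantified by LC-MS/MS. First-order t1/2 gives CLint (uL/min/mg), scaled to L/h/kg; unbound CLint = CLint/fu mic.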

T2 sequence (P28335 33-458): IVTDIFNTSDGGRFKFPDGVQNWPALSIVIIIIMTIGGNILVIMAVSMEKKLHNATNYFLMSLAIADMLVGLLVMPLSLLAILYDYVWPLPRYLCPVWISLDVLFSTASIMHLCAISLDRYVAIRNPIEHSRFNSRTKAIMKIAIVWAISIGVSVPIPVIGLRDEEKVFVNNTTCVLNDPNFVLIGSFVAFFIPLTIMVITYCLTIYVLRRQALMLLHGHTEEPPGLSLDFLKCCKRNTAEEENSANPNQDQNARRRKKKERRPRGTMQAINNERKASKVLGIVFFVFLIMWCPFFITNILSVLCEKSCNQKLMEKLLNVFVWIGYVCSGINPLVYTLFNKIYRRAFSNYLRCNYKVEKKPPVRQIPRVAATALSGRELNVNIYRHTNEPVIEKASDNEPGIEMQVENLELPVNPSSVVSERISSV
T2 sequence (P32121 whole entry partner): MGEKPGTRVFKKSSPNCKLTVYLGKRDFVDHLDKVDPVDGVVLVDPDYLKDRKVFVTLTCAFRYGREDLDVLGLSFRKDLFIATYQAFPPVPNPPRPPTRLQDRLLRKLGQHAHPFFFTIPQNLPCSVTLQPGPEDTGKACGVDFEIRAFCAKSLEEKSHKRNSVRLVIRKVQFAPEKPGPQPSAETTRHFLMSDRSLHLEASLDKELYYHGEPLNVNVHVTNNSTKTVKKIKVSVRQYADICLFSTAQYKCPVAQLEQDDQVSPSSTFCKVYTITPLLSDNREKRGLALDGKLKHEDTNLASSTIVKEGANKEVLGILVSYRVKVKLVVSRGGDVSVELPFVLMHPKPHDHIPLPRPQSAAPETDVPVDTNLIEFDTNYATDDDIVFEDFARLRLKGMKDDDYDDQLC
T3 sequence (P28223 whole entry): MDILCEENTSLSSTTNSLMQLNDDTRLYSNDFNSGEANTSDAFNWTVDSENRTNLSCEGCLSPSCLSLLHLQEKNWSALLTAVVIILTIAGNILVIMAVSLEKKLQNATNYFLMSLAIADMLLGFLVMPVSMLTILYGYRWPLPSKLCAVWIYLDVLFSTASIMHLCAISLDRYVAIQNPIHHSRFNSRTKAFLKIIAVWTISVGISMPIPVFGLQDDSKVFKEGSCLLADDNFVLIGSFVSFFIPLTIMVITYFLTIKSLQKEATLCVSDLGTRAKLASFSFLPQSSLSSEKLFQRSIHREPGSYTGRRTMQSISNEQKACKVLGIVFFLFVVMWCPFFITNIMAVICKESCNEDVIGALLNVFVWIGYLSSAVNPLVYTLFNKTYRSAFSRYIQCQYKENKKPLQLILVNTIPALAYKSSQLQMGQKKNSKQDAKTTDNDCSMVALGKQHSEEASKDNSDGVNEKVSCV
T1 sequence (P41595 whole entry): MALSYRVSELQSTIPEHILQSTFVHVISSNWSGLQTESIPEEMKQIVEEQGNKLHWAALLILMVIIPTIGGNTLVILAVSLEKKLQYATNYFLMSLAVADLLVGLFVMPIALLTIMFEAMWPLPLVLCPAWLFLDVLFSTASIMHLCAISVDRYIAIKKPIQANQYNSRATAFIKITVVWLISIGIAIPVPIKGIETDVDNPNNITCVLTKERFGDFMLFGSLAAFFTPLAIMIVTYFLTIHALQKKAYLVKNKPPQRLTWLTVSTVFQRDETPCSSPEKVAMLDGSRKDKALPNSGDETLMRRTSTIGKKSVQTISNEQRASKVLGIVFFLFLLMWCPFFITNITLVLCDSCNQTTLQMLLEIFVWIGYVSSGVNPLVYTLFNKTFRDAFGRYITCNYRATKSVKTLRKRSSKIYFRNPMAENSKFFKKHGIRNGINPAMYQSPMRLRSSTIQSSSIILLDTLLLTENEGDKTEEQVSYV

## COC[C@@H]1C[C@@H]2CNCCN2c2c(F)c(OC)cc(C(F)F)c2O1.Cl [Example 29, (4aR,6S)-8-(Difluoromethyl)-11-fluoro-10-methoxy-6-(methoxymethyl)-2,3,4,4a,5,6-hexahydro-1H-pyrazino[2,1-d][1,5]benzoxazepine hydrochloride]
[1]
  Selectivity over 5-HT2B: +++ (>100)
[2]; Potency (EC50 5-HT2C) in functional assay, agonism, read-out: EC50 5-HT2C
  EC50: 20 to 200 nM
[2]; relative efficacy vs maximal effect induced by 5-HT (defined as 100%)
  Emax: > 70%
[3]
  Selectivity over 5-HT2A: +++ (>100)
[4]
  CLint scaled at 0.5 μM: 83.3 to 833 mL/min/kg
